Patent publication US8030300B2, “Ligands for nicotinic acetylcholine receptors, and methods of making and using them” (priority 2003, dated 2011)
Where two headings read alike, the source gives them in different places.

Assays:
Assay in all cases: biochemical
Assay type in all cases: binding
[1] = molecular target: T1, α2β4 nAChR subtype (Rattus norvegicus, UniProt P12389+P12392)
T1 construct: expressed in transfected cells
From the text: (§1) In order to assess the steric and hydropathic effects of the C-5 substituents of the pyridine on the binding affinity and subtype-selectivity at neuronal nicotinic acetylcholine receptors. […] The binding affinity ratios for a ligand, calculated from its affinities at an α subunit paired with either the β2 osubunit or the β4 subunit, represents a measure of the selectivity of that ligand with regard to the β subunits.

[2] = molecular target: T2, α4β2 nAChR subtype (Rattus norvegicus, UniProt P09483+P12390)
T2 construct: expressed in transfected cells
T2 sequence (P12390 25-500): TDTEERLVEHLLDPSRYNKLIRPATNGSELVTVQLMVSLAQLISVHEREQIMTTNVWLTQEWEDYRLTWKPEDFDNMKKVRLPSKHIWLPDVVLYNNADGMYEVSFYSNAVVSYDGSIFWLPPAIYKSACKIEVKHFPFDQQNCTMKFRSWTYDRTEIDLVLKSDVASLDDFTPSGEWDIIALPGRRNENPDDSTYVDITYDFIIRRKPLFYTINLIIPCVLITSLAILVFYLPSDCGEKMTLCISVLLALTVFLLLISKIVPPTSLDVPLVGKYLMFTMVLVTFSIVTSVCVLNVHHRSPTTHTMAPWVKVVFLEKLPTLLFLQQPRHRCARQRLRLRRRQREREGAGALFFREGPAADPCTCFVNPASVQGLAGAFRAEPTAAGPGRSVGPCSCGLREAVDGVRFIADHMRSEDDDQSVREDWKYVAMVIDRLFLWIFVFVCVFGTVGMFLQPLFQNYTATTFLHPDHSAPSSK
T2 sequence (P09483 31-630): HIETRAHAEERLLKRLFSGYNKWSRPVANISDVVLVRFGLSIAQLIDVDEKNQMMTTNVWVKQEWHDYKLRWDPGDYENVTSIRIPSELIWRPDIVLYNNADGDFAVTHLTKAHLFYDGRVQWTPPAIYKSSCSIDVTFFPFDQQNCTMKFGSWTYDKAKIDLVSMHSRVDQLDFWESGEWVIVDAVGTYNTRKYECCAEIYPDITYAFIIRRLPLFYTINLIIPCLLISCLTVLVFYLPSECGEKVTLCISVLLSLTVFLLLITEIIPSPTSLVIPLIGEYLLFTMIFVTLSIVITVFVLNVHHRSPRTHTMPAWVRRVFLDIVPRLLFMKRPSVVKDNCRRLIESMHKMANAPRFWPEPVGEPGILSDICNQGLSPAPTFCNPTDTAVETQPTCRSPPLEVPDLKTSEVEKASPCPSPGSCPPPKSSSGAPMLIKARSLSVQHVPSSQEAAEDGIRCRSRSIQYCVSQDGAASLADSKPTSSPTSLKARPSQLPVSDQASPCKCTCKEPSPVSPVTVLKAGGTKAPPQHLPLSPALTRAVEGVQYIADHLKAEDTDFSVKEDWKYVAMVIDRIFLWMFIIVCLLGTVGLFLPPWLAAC
From the text: as §1

[3] = molecular target: T3, α3β2 nAChR subtype (Rattus norvegicus, UniProt P04757+P12390)
T3 construct: expressed in transfected cells
T3 sequence (P12390 25-500): as the sequence (P12390 25-500) above
T3 sequence (P04757 26-499): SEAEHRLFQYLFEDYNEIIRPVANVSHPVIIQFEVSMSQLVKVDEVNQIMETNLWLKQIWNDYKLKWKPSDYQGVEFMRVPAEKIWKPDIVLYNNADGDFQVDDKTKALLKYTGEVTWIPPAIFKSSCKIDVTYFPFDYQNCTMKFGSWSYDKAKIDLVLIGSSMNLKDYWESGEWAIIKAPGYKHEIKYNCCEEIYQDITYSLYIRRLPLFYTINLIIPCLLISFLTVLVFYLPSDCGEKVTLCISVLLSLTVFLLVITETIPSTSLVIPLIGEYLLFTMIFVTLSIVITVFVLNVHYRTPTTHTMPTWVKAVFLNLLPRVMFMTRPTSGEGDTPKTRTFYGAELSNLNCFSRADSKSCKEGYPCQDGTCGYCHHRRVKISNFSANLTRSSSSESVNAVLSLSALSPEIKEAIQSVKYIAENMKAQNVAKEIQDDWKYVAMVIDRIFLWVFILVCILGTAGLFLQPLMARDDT
From the text: as §1

[4] = molecular target: T4, α4β4 nAChR subtype (Rattus norvegicus, UniProt P09483+P12392)
T4 construct: expressed in transfected cells
T4 sequence (P12392 21-495): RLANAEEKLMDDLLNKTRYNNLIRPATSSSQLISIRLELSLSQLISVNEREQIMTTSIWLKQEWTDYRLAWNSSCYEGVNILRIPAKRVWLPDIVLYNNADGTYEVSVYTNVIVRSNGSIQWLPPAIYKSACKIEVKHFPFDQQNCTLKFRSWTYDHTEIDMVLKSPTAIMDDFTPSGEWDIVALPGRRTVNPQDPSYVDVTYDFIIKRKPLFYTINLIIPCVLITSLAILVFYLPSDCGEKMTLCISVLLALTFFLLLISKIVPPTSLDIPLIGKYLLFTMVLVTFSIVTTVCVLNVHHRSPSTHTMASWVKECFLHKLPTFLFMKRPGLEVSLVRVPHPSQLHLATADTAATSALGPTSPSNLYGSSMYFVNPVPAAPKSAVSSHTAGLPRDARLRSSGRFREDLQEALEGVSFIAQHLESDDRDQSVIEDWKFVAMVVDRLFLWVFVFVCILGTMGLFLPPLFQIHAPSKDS
T4 sequence (P09483 31-630): as the sequence (P09483 31-630) above
From the text: as §1

[5] = molecular target: T5, α2β2 nAChR subtype (Rattus norvegicus, UniProt P12389+P12390)
T5 construct: expressed in transfected cells
T5 sequence (P12390 25-500): as the sequence (P12390 25-500) above
T5 sequence (P12389 28-511): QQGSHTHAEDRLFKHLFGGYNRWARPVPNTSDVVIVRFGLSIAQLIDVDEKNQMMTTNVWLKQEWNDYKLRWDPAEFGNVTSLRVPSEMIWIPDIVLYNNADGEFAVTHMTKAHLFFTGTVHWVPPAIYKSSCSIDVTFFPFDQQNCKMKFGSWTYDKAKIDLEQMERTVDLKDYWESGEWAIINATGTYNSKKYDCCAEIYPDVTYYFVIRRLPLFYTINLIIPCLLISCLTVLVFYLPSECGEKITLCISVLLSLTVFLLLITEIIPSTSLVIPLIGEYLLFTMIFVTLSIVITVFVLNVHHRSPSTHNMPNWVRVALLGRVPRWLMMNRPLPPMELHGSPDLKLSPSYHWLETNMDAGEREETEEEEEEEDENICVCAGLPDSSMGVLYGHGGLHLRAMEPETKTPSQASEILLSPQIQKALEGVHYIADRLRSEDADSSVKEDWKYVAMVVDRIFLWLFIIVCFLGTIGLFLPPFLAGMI
From the text: as §1

[6] = molecular target: T6, α3β4 nAChR subtype (Rattus norvegicus, UniProt P04757+P12392)
T6 construct: expressed in transfected cells
T6 sequence (P04757 26-499): as the sequence (P04757 26-499) above
T6 sequence (P12392 21-495): as the sequence (P12392 21-495) above
From the text: as §1

[7] = molecular target: T7, receptors in rat forebrain (mainly α4β2) (Rattus norvegicus, UniProt P09483+P12390)
T7 construct: from tissue; host or cells: rat forebrain homogenate
T7 sequence (P09483 31-630): as the sequence (P09483 31-630) above
T7 sequence (P12390 25-500): as the sequence (P12390 25-500) above
From the text: as §1
In Vitro Inhibition of ^3H-Epibatidin Binding
The high affinity binding site for ^3H-epibatidin is most certainly binding to the α4β2 subtype of nicotinic receptors. The identity of the low affinity site is still believed to be unknown.
Tissue preparation: Preparations may be performed at 0-4° C. unless otherwise indicated. […] The tissue suspension may then be centrifuged at 27,000×g for 10 min. The supernatant is then discarded and the pellet may then be washed three times by centrifugation at 27,000×g for 10 min in 20 mL fresh buffer, and the final pellet may be resuspended in fresh buffer (400 mL per g of original tissue) and used for binding assays.
Assay: Aliquots of 2.0 mL homogenate may be added to 0.100 mL of test solution and 0.100 mL of ^3H-epibatidin (0.3 nM, final concentration), mixed and incubated for 60 min at room temperature. […] The amount of radioactivity on the filters may be determined by conventional liquid scintillation counting. Specific binding is total binding minus non-specific binding.

[8] = Ki α2β4, Table 5, rat nAChR subtypes
[9] = Ki α2β4, Table 6, [3H]-EB 0.099 nM, 0.091 nM, ligand 0.00197-100 μM, n = 1
[10] = Ki α4β2, Table 5, rat nAChR subtypes
[11] = Ki α4β2, Table 6, [3H]-EB 0.099 nM, 0.091 nM, ligand 0.00197-100 μM, n = 1
[12] = Ki α3β2, Table 5, rat nAChR subtypes
[13] = Ki α3β2, Table 6, [3H]-EB 0.099 nM, 0.091 nM, ligand 0.00197-100 μM, n = 1
[14] = Ki α4β4, Table 5, rat nAChR subtypes
[15] = Ki α4β4, Table 6, [3H]-EB 0.099 nM, 0.091 nM, ligand 0.00197-100 μM, n = 1
[16] = Ki α2β2, Table 5, rat nAChR subtypes
[17] = Ki α3β4, Table 5, rat nAChR subtypes
[18] = Ki α3β4, Table 6, [3H]-EB 0.099 nM, 0.091 nM, ligand 0.00197-100 μM, n = 1
[19] = Ki α4β2**, Table 6, **Forebrain mainly α4β2, [3H]-EB 0.099 nM, 0.091 nM, n = 1
[20] = Ki α4β2*, Table 5, *Rat forebrain, mainly α4β2
[21] = Ki α2β4, Table 1, mean of 3 (1, 2: 3 to 6) independent measurements
[22] = Ki α4β2, Table 1, mean of 3 (1, 2: 3 to 6) independent measurements
[23] = Ki α3β2, Table 1, mean of 3 (1, 2: 3 to 6) independent measurements
[24] = Ki α4β4, Table 1, mean of 3 (1, 2: 3 to 6) independent measurements
[25] = Ki α2β2, Table 1, mean of 3 (1, 2: 3 to 6) independent measurements
[26] = Ki α3β4, Table 1, mean of 3 (1, 2: 3 to 6) independent measurements
[27] = Ki Rat forebrain, Table 1, mean of 3 (1, 2: 3 to 6) independent measurements
[28] = Table 3, mean ± SEM of 3 (nicotine, 1: 3 to 6) independent measurements, read-out: Ki α2β4
[29] = Table 3, mean ± SEM of 3 (nicotine, 1: 3 to 6) independent measurements, read-out: Ki α4β2
[30] = Table 3, mean ± SEM of 3 (nicotine, 1: 3 to 6) independent measurements, read-out: Ki α3β2
[31] = Table 3, mean ± SEM of 3 (nicotine, 1: 3 to 6) independent measurements, read-out: Ki α4β4
[32] = Table 3, mean ± SEM of 3 (nicotine, 1: 3 to 6) independent measurements, read-out: Ki α2β2
[33] = Table 3, mean ± SEM of 3 (nicotine, 1: 3 to 6) independent measurements, read-out: Ki α3β4

T1 sequence (P12389 28-511): as the sequence (P12389 28-511) above
T1 sequence (P12392 21-495): as the sequence (P12392 21-495) above

SMILES	Ki [1, 8] [nM]	Ki [2, 10] [nM]	Ki [3, 12] [nM]	Ki [4, 14] [nM]	Ki [5, 16] [nM]	Ki [6, 17] [nM]	Ki [7, 20] [nM]	also measured
CN1CCC[C@H]1COc1cccnc1 [Ligand 8, 3-(1-Methyl-2(S)-pyrrolidinylmethoxy)pyridine, reference compound]	209	1.4	9.04	205	1.07	835	5.15	Ki [1, 9]: 209 nM; Ki [2, 11]: 1.4 nM; Ki [3, 13]: 9.04 nM; Ki [4, 15]: 205 nM; Ki ([5]; Ki α2β2, Table 6, [3H]-EB 0.099 nM, 0.091 nM, ligand 0.00197-100 μM, n = 1): 1.07 nM; Ki [6, 18]: 835 nM; Ki [7, 19]: 5.15 nM
O=c1cccc2n1C[C@H]1C[C@@H]2CN(CCCOc2cccnc2)C1 [ZW-17]								Ki [1]: 14000 nM; Ki [2]: 3110 nM; Ki [3]: > 1000 nM; Ki [4]: 3230 nM; Ki [5]: 2980 nM; Ki [6]: > 10000 nM; Ki [7]: 4550 nM
CC(N)C#Cc1cncc(OC[C@@H]2CCCN2C)c1 (stereo partly drawn) [ZW-99]								Ki [1]: 7400 nM; Ki [2]: 7.18 nM; Ki [3]: 47.4 nM; Ki [4]: 6130 nM; Ki [5]: 7.52 nM; Ki [6]: 127000 nM; Ki [7]: 41.4 nM
FC1CC2CC(c3ccc(Cl)nc3)C1N2 (stereo not drawn) [Ligand 11, 2-exo-(2-Chloro-5-pyridyl)-6-fluoro-7-azabicyclo[2.2.1]heptane]	0.481	0.328	0.149	0.172	0.218	2.48	0.668	
c1cncc(OC[C@@H]2CCN2)c1 [Ligand A-85380, reference compound]	18.4	0.142	0.208	8.04	0.073	77.7	0.248	Ki [1, 9]: 18.4 nM; Ki [2, 11]: 0.142 nM; Ki [3, 13]: 0.208 nM; Ki [4, 15]: 8.04 nM; Ki [6, 18]: 77.7 nM; Ki [7, 19]: 0.248 nM
CN1CCC[C@H]1COc1cncc(C#CCCCCCCCCO)c1 [Ligand 17]								Ki [1, 21]: 7800 nM; Ki [2, 22]: 6.5 nM; Ki [3, 23]: 52.1 nM; Ki [4, 24]: 3560 nM; Ki [5, 25]: 26.8 nM; Ki [6, 26]: 62700 nM; Ki [7, 27]: 21.7 nM
CN1CCC[C@H]1COc1cncc(C#CCO)c1 [Ligand 14]								Ki [1, 21]: 1880 nM; Ki [2, 22]: 0.954 nM; Ki [3, 23]: 7.64 nM; Ki [4, 24]: 1690 nM; Ki [5, 25]: 2.43 nM; Ki [6, 26]: 18200 nM; Ki [7, 27]: 3.16 nM
Clc1cc2c(cn1)C1C3CCC(N3)C1CC2 (stereo not drawn) [Ligand 37a]	693	67.4	345	672	294	2170	339	Ki [1, 28]: 717 nM; Ki [2, 29]: 73 nM; Ki [3, 30]: 354 nM; Ki [4, 31]: 637 nM; Ki [5, 32]: 290 nM; Ki [6, 33]: 2280 nM
O=C1CC2CC(c3ccc(Cl)nc3)C1N2 (stereo not drawn) [Ligand 5, 2-exo-(2-Chloro-5-pyridyl)-7-azabicyclo[2.2.1]heptan-6-one]	3240	2020	1500	3560	1010	8870	1350	
CCCCCC#Cc1ccc(C2CC3CCC2N3)cn1 (stereo not drawn) [Ligand 34]	67.4	67.7	19.8	61.8	16.9	95.4	52	
OCCCCC#Cc1cncc(C2CC3CCC2N3)c1 (stereo not drawn) [Ligand 31, 2-exo-(5-(6-Hydroxy-1-hexynyl)-3-pyridyl)-7-azabicyclo[2.2.1]heptane]	45.1	0.166	0.146	15.4	0.352	266	0.215	
Clc1cc2c(cn1)C1(CC2)CC2CCC1N2 (stereo not drawn) [Ligand 58a]	11600	28000	16000	10200	12800	36700	54400	Ki [1, 28]: 10700 nM; Ki [2, 29]: 29200 nM; Ki [3, 30]: 19700 nM; Ki [4, 31]: 10500 nM; Ki [5, 32]: 12600 nM; Ki [6, 33]: 14900 nM
OC1CC2CC(c3ccc(Cl)nc3)C1N2 (stereo not drawn) [Ligand 8, 2-exo-(2-Chloro-5-pyridyl)-6-exo-hydroxyl-7-azabicyclo[2.2.1]heptane]	39.7	12.6	8.88	45.6	6.3	144	22.9	
CN1CCC[C@H]1COc1cncc(C#CCNC(=O)OC(C)(C)C)c1 [Ligand 13, 5-(3-tert-Butoxycarbonylamino-1-propynyl)-3-(1-methyl-2(S)-pyrrolidinylmethoxy)pyridine]								Ki ([1]; read-out: Ki α2β4, Table 5, rat nAChR subtypes): 8240 nM; Ki ([2]; read-out: Ki α4β2, Table 5, rat nAChR subtypes): 2.07 nM; Ki ([3]; read-out: Ki α3β2, Table 5, rat nAChR subtypes): 7.27 nM; Ki ([4]; read-out: Ki α4β4, Table 5, rat nAChR subtypes): 8280 nM; Ki ([5]; read-out: Ki α2β2, Table 5, rat nAChR subtypes): 1.19 nM; Ki ([6]; read-out: Ki α3β4, Table 5, rat nAChR subtypes): 59900 nM; Ki ([7]; read-out: Ki α4β2*, Table 5, *Rat forebrain, mainly α4β2): 3.71 nM
